The values that follow come from ChEMBL document CHEMBL1201862, “PubChem BioAssay data set” (2004).

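Cultured in 96-well plates, cells were exposed to test compound for 48 hours across five concentrations. The concentration for 50% growth inhibition is given as GI50.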 Active and inactive are the calls of the source. Cut-off read from the data, not from the text of the source: active = GI50 up to about 1.1 µM and inactive = higher. A value given as a limit tells only on which side of the number the result lay.

Common to all, as to experiment: inhibition of tumour cell growth, NCI panel, 48 h
Assay [1] concerns ACHN.
Assay [2] concerns MCF7.
Assay [3] deals with MDA-N.
In assay [4] the test system is MOLT-4.
Assay [5] deals with Malme-3M.
The subject of assay [6] is NCI-H226.
Assay [7] deals with NCI-H460.
The subject of assay [8] is PC-3.
For assay [9], the system named is SF-268.
Assay [10] deals with SF-295.
The test system of assay [11] is SK-MEL-28.
The test system of assay [12] is SN12C.
In assay [13] the test system is U-251.
Assay [14] deals with UACC-62.
The test system of assay [15] is UO-31.
In assay [16] the test system is HOP-92.
The test system of assay [17] is SK-MEL-5.
Assay [18] relates to SR.
In assay [19] the test system is TK-10.
In assay [20] the test system is HL-60.

Take `COc1cc(/C=N/n2c(C)n[nH]c2=O)cc(OC)c1OC`: the GI50 in assay [1], in assay [2], in [3], in assay [4], in [5] and in assay [6] was > 100 µM (inactive) each time. For the same molecule, the GI50 in [7], in assay [8], in assay [9], in [10], in assay [11] and in assay [12] was > 100 µM (inactive) each time. For the same molecule, the GI50 is > 100 µM (inactive) in assay [13], 63.1 µM (inactive) in assay [14] and 84.3 µM (inactive) in assay [15].

Turning to `CC(CCC(=O)O)(c1ccc(O)cc1)c1ccc(O)cc1`, the GI50 in [1], in assay [16], in assay [3], in [4], in [5] and in assay [6] was > 100 µM (inactive) each time. Moreover, the GI50 in assay [7], in [8], in [9], in assay [10], in assay [11] and in assay [17] was > 100 µM (inactive) in each case. Further, the GI50 in assay [12], in [18], in [19], in assay [13], in assay [14] and in [15] was > 100 µM (inactive) in each case.

In the case of `O=CN1CCN(C(=O)c2ccc(Cl)cc2Cl)C1=S`, the GI50 was > 100 µM (inactive) in [1]; 20.4 µM (inactive) in [20]; 34.2 µM (inactive) in assay [16]; 34.6 µM (inactive) in assay [2]; 64.6 µM (inactive) in assay [3]; > 100 µM (inactive) in assay [4]. In addition, the GI50 in [5] was > 100 µM (inactive); in assay [6], > 100 µM (inactive); in assay [7] it was > 100 µM (inactive); in [8], > 100 µM (inactive); in [9] it was 26.1 µM (inactive); in assay [10], > 100 µM (inactive). Moreover, the GI50 is > 100 µM (inactive) in assay [11]; 43 µM (inactive) in assay [12]; 78.7 µM (inactive) in assay [19]; > 100 µM (inactive) in assay [13]; > 100 µM (inactive) in assay [14].

Regarding `N#Cc1nc2cc(Cl)ccc2nc1N1CCN(c2ccc([N+](=O)[O-])cc2)CC1`, the GI50 in assay [1], in [2], in assay [3], in assay [4], in assay [7] and in assay [8] was > 100 µM (inactive) in each case. Also, the GI50 in [9], in [10], in [11], in [17], in assay [12] and in assay [19] was > 100 µM (inactive) each time. In addition, the GI50 in assay [13], in [14] and in assay [15] was > 100 µM (inactive) each time.

`CCOC(=O)c1[nH]c(-c2[nH]c(-c3[nH]c(-c4[nH]c(C(=O)OCC)c(C)c4C(=O)OCC)c(C(=O)OCC)c3C)c(C)c2C(=O)OCC)c(C(=O)OCC)c1C`: the GI50 in [1], in [20], in assay [2], in [3], in [4] and in [5] was > 100 µM (inactive) in each case. The GI50 in [6], in assay [7], in assay [8], in assay [9], in [10] and in [11] was > 100 µM (inactive) throughout. In addition, the GI50 in [17] is 50.4 µM (inactive); in [12], > 100 µM (inactive); in assay [19], > 100 µM (inactive); in assay [13] it was > 100 µM (inactive); in [14], > 100 µM (inactive).

In the case of `COC(=O)C1C2CC3C1C3C2C(=O)OC` (configuration not stated), the GI50 in assay [1], in [16], in assay [2], in assay [3], in assay [4] and in [5] was > 100 µM (inactive) throughout. The GI50 in assay [6], in assay [7], in assay [8], in assay [9], in [10] and in assay [11] was > 100 µM (inactive) each time. Moreover, the GI50 in [17], in assay [12], in [19], in assay [13], in [14] and in assay [15] was > 100 µM (inactive) throughout.

Consider `O=C(/C=C\c1ccccc1)N1CCc2ccccc2C1`, for which the GI50 was 38.2 µM (inactive) in assay [1]; 29.8 µM (inactive) in assay [20]; 42.6 µM (inactive) in assay [16]; 49.7 µM (inactive) in assay [2]; > 100 µM (inactive) in assay [6]; 60.3 µM (inactive) in [7]. For the same molecule, the GI50 in assay [8] is 34.4 µM (inactive); in assay [9], 49.7 µM (inactive); in [10], 34.9 µM (inactive); in [11] it was 61 µM (inactive); in [17] it was 17.1 µM (inactive); in assay [18], 24.1 µM (inactive). The GI50 in [19] was > 100 µM (inactive); in assay [13], 80.7 µM (inactive); in assay [14] it was 43.4 µM (inactive); in assay [15] it was 39 µM (inactive).

For the molecule `Cc1cc(S(=O)(=O)/N=C2\NCCN2Cc2ccccc2)c(S)cc1Cl`, the GI50 in assay [1] was > 100 µM (inactive); in [20] it was > 100 µM (inactive); in assay [2], > 100 µM (inactive); in assay [3] it was > 100 µM (inactive); in [4], 47.2 µM (inactive); in assay [5], 43.7 µM (inactive). In addition, the GI50 was 61.2 µM (inactive) in assay [6]; > 100 µM (inactive) in [7]; > 100 µM (inactive) in assay [8]; 88.3 µM (inactive) in assay [9]; 81.7 µM (inactive) in [10]; > 100 µM (inactive) in assay [11]. Moreover, the GI50 in [17] is > 100 µM (inactive); in [12] it was > 100 µM (inactive); in [19], > 100 µM (inactive); in assay [13] it was > 100 µM (inactive); in [14], 72.1 µM (inactive).

In the case of `CCSC(=O)/C=C1\CN(C(=O)OC(C)(C)C)C1C(=O)OC(C)(C)C` (configuration not stated), the GI50 in assay [1] is 3.63 µM (inactive); in [20], 1.87 µM (inactive); in [16], 2.59 µM (inactive); in assay [2], 2.38 µM (inactive); in assay [4], 1.71 µM (inactive); in [5], 1.95 µM (inactive). Moreover, the GI50 is 12.7 µM (inactive) in [6]; 7.14 µM (inactive) in [7]; 4.94 µM (inactive) in [8]; 4.32 µM (inactive) in [9]; 12.1 µM (inactive) in [10]; 1.86 µM (inactive) in [11]. The GI50 was 3.37 µM (inactive) in assay [17]; 1.86 µM (inactive) in assay [12]; 0.684 µM (active) in assay [18]; 2.59 µM (inactive) in assay [19]; 6.19 µM (inactive) in assay [13]; 3.2 µM (inactive) in [14]. Also, the GI50 in assay [15] is 5.41 µM (inactive).

On to `C=C1C(=O)C23C(O)CC4C(C)(C)CCC(O)C4(C)C2CC(OC(C)=O)C1[C@H]3O` (some centres not stated), for which the GI50 in [1] was 4.12 µM (inactive); in assay [20], 1.26 µM (inactive); in [16] it was 2.26 µM (inactive); in assay [3] it was 7.87 µM (inactive); in assay [4] it was 1.28 µM (inactive); in assay [5] it was 3.37 µM (inactive). Besides, the GI50 was 9.31 µM (inactive) in assay [6]; 4.25 µM (inactive) in assay [7]; 11.4 µM (inactive) in [8]; 4.49 µM (inactive) in [9]; 8.05 µM (inactive) in assay [10]; 3.39 µM (inactive) in assay [11]. Besides, the GI50 in assay [12] is 3.15 µM (inactive); in assay [18], 1.18 µM (inactive); in assay [19], 2.22 µM (inactive); in [13], 8.81 µM (inactive); in [15], 15.3 µM (inactive).

Regarding `COCc1nc(N)nc(N2N=C(C)CC2(C)C)n1`, the GI50 in [1], in assay [20], in assay [16], in [2], in assay [4] and in assay [6] was > 100 µM (inactive) in each case. The GI50 in [7], in [8], in [9], in assay [10], in [11] and in assay [17] was > 100 µM (inactive) throughout. The GI50 in assay [12], in assay [18], in [19], in assay [13], in assay [14] and in [15] was > 100 µM (inactive) in each case.
